Data: patent publication US12257251B2, “Use of FAK inhibitor in preparation of drug for treating tumors having NRAS mutation” (INXMED (NANJING) CO., LTD., priority 2019, dated 2025)

Tests used:
[1] = test system: HT-1080 cells carrying NRAS, CDKN2A and IDH1 gene mutations; assay: Mouse model of human fibrosarcoma (cell line HT-1080), subcutaneous tumors: tumor growth; format: in vivo; conditions: for Median tumor volume: day 13; for TGI: day 1 to day 13, from median tumor volumes; for Tumor shrinkage [X/7]: number of animals of 7 with tumor shrinkage
Method: • 1. Materials and Method: • 1.1. Design of Research • Treatment began when the median tumor volume was between 70-130 mm^3. • 10 mice in the control group, and 7 mice in the treatment group. • Oral gavage once daily. • Control: 0.5% hydroxyethyl cellulose • BI 853520: 50 mg/kg, 25 mg/kg, 12.5 mg/kg, 6 mg/kg, • Tumor volume was measured 3 times a week and body weight was monitored daily. • Evaluation of treatment outcome was based on absolute volume of individual tumors. • Tolerability was assessed based on changes in body weight.
BI853520: synthesized according to the method in the patent WO2010058032. The dry powder was suspended in 0.5% hydroxyethyl cellulose to obtain the desired concentration for each assay. The pH of this formulation was 3.5.
HT-1080 cells: HT-1080 cells carrying NRAS, CDKN2A and IDH1 gene mutations were obtained from ATCC (CRL-121). Cells were grown in T175 tissue culture flasks with DMEM+Glutamax supplemented with 10% heat-inactivated fetal bovine serum as medium. Cells were cultured at 37° C. and 5% CO2 in humidified air.
Mice: Athymic female BomTac, approximately 6-week-old NMRI-Foxn1^nu mice were purchased from Taconic, Denmark. After arriving in the animal room, mice were acclimated to the new environment for at least 3 days before being used for assay. The animals were housed under standard conditions (temperature 21.5±1.5° C. and 55±10% humidity) with 5 mice in each group. A standard diet and autoclaved tap water were provided for ad libitum feeding. A Datamars® T-IS 8010 FDX-B transponder implanted subcutaneously in the neck region and a LabMax® II fixed reader were used to identify each mouse.
To establish subcutaneous tumors, HT-1080 cells were harvested by trypsinization, centrifuged, washed and suspended in ice-cold PBS+1×10^8 cells/ml. Then 100 μl of cell suspension containing 1×10^7 cells was injected subcutaneously into the right flank of nude mice (1 site per mouse). When tumors were established and reached a diameter of 5-8 mm (7 days after cell injection), mice were randomly assigned to the treatment group and the control group.
BI853520 was suspended in 0.5% hydroxyethyl cellulose, which was administered intragastrically through gavage needle every day, and the dosage was 10 mL/Kg.
Tumor diameters were measured with calipers three times a week (Monday, Wednesday, and Friday). The volume of each tumor [in mm^3] was calculated according to the equation, “tumor volume=length×diameter^2×π/6”. To monitor the side effects of the treatment, the mice were checked daily for abnormalities and their body weights were measured daily. Animals were sacrificed at the end of the study (approximately two weeks after the start of treatment). During the study, animals with tumor necrosis or tumors larger than 2000 mm^3 were sacrificed ahead of schedule for ethical reasons.
At the end of the assay on day 13, statistical evaluation of tumor volume and body weight parameters was performed. Absolute tumor volume and percent change in body weight (referenced to initial weight on day 1) were used. A nonparametric approach was used, and the number of observations, median, minimum and maximum values were calculated. For a quick overview of possible treatment effects, the median tumor volume for each treatment group T and the median tumor volume for the control group C were used to calculate the TGI from day 1 to day d: TGI=100×[(Cd−C1)−(Td−T1)]/(Cd−C1) • wherein, C1, T1=median tumor volume in control and treatment groups at the start of the assay (day 1). • Cd, Td=median tumor volume in control and treatment groups at the end of the assay (day 13).
Each dose of test compound was compared to the control group using a one-sided descending wilcoxon test, taking reduction in tumor volume as a treatment effect and weight loss as a side effect. […]

[2] = Body weight change (tolerability) in the KYSE-270 xenograft study; format: in vivo, mouse; conditions: for Change in median weight: BI853520 50 mg/Kg qd, day 13 versus day 1
Method: 1.7. Monitoring tumor growth and side effects: Tumor diameters were measured with calipers three times a week. The volume [mm^3] of each tumor was calculated according to the equation “tumor volume=length×diameter^2×π/6”. To monitor the side effects of the treatment, the mice were checked daily for abnormalities and their body weights were measured three times a week. For ethical reasons, animals with tumors larger than 1.5 cm in diameter, ulcerated tumors, or 20% body weight loss were euthanized.
The wilcoxon test was used for comparison. For body weight, the percent change relative to initial body weight on day 1 was used as the target variable for statistical analysis. The number of animals, and the median, minimum and maximum weight changes in each group were calculated.
One-sided test to compare all treatment groups with control group was performed for observing: • reduction in tumor volume (inhibition of tumor growth, efficacy parameter) and • reduction in weight changes (weight loss, tolerance parameters).
Within each subtopic, p-values for the efficacy parameter were compared and adjusted for multiple times according to Bonferroni-Holm. The p-value for the tolerance parameter was kept constant so as not to overlook possible side effects. Significance level was fixed at α=5%. A p-value (adjusted) of less than 0.05 was considered to show a statistically significant difference between groups, and 0.05≤p-value<0.10 was considered as an indicative difference. Statistical evaluations were performed using the SAS software package version 9.4 (SAS Institute Inc., Cary NC, USA).

With `COc1cc(C(=O)NC2CCN(C)CC2)c(F)cc1Nc1ncc(C(F)(F)F)c(Oc2cccc3c2C(=O)N(C)C3)n1` [BI853520] the Median tumor volume ([1]; 6 mg/kg qd oral gavage) was 322 mm^3, the TGI ([1]; 6 mg/kg qd) was 70% and the “Tumor shrinkage [X/7]” value ([1]; 6 mg/kg qd) was 1 X/7. For the same molecule, the Median tumor volume ([1]; 12.5 mg/kg qd oral gavage) was 149 mm^3, the TGI ([1]; 12.5 mg/kg qd) was 94% and the “Tumor shrinkage [X/7]” value ([1]; 12.5 mg/kg qd) was 2 X/7. The Median tumor volume ([1]; 25 mg/kg qd oral gavage) was 15 mm^3, the TGI ([1]; 25 mg/kg qd) was 113% and the “Tumor shrinkage [X/7]” value ([1]; 25 mg/kg qd) was 6 X/7. The TGI ([1]; 50 mg/kg qd) was 107%, the “Antitumor activity (in words)” value ([1]; all dose levels (6 to 50 mg/kg qd)) was “statistically significant antitumor activity” and the “Regression (in words)” value ([1]; all the treatment groups (6 to 50 mg/kg qd)) was “regression was observed”. For the same molecule, the “Change in median weight” value ([2]; 50 mg/kg) was “+2.8%”, the “Change in median weight” value ([2]; listed as BI 853520, 50 mg/kg) was 2.8% and the “Tolerability (in words)” value ([2]; BI 853520 50 mg/kg) was “well tolerated”.
